Measurements reported in PMC5884652, “New antimicrobial peptide kills drug-resistant pathogens without detectable resistance” (Oncotarget, 2018).
Ends that are not written are not given here.

How the values were obtained:
P. aeruginosa 3543 = test: microbe, parasite or virus in culture; assay type: cell-based, Pseudomonas aeruginosa; details: pH 7.4 (II); 10 mM sodium phosphate buffer, 10% LB; 37° C, 24 h; mean of 3 experiments
Description: (§1) The method for peptide synthesis has been described in detail previously. E. coli ATCC 25922 (LB media), P. aeruginosa ATCC 15692 (NB+0.5% NaCl media), Listeria monocytogenes ATCC 3710 (LB media), Staphylococcus epidermidis ATCC 12228 (LB media), and S. aureus ATCC 29213 (TSB media) were obtained from the American Type Culture Collection (Manassas, VA, USA). Bacillus subtilis KCTC 1998 (LB media), Salmonella typhimurium KCTC 1926 (NB media), and Proteus vulgaris KCTC 2433 (NB media) were obtained from the Korean Collection for Type Cultures (Jeollabuk-do, Korea). E. coli CCARM 1238 was received from the Culture Collection of Antibiotic Resistant Microbes at Seoul Women’s University, Korea. Drug-resistant P. aeruginosa 3543, 3904, 3547, and 4007 and S. aureus 3126, 0027, 5157, 1635, 4761, 5159, 3359, 2122, 1630, 1870, 3511, 5156, and 3518 were resistant strains isolated from patients with otitis media in a Chonnam National University’s hospital.
(§2) The antibacterial activities of AMPs (melittin, clavaspirin, and its analogs) and conventional antibiotic drugs (erythromycin, gentamicin, ampicillin, and piperacidin) were determined using microdilution assays. Bacterial cells were cultured at 37° C in appropriate culture media at pH 5.5 or pH 7.4 until collection during the mid-log phase and suspended in 10 mM sodium phosphate buffer (pH 5.5 or pH 7.4) supplemented with 10% culture medium. Thereafter, 2× serial dilutions of each peptide (0.25–128 μM) or antibiotic (0.25–256 μM) were added to sterile 96-well plates, and aliquots of cell suspension (5 × 10^5 colony forming units (cfu)/mL) were seeded into each well. The samples were then incubated at 37° C for 24 h. At the end of the incubation, the minimum inhibitory concentrations (MICs) of the peptides were determined using a VERSA Max microplate reader (Molecular Devices Co., Sunnyvale, CA, USA) at a wavelength of 600 nm. […] MIC values were calculated as the mean of 3 independent experiments conducted in triplicate.

P. aeruginosa 3547 = test: microbe, parasite or virus in culture; assay type: cell-based, Pseudomonas aeruginosa; details: pH 7.4 (II); 10 mM sodium phosphate buffer, 10% LB; 37° C, 24 h; mean of 3 experiments
Description: as §1, §2

P. aeruginosa 3904 = test: microbe, parasite or virus in culture; assay type: cell-based, Pseudomonas aeruginosa; details: pH 7.4 (II); 10 mM sodium phosphate buffer, 10% LB; 37° C, 24 h; mean of 3 experiments
Description: as §1, §2

P. aeruginosa 4007 = test: microbe, parasite or virus in culture; assay type: cell-based, Pseudomonas aeruginosa; details: pH 7.4 (II); 10 mM sodium phosphate buffer, 10% LB; 37° C, 24 h; mean of 3 experiments
Description: as §1, §2

[1] = assay type: in vivo; details: 30 min; topical, 200 μg/mL, hairless mouse skin, fluorescence microscopy
Procedure: Topical delivery of rhodamine-labeled CSP-4 was evaluated on hairless mouse skin. Male hairless mice (6 weeks old) bred by Hoshino Laboratory Animals, Inc. (Bandou-shi, Japan) were purchased from Japan SLC, Inc. (Hamamatsu, Japan). After anesthetizing 5 mice per group (3 groups) with isoflurane, rhodamine-labeled CSP-4 (200 μg/mL) was spread on the hairless mouse skin. The skin was then examined for reactions every 5 min for 30 min. Skin tissue was collected and washed once in PBS, fixed in 4% paraformaldehyde for 12 h, dehydrated in 50% and 100% ethanol (2 h each), and washed 3 times in xylene substitute (1 h/wash). Paraffin-embedded samples were cut into 4 μm-thick sections (Microtome; Thermo Scientific, Waltham, MA, USA) and examined under a fluorescence microscope (IX71; Olympus; Tokyo, Japan).
Supplementary Figure 2: Topical application of rhodamine-labeled CSP-4 to the skin of hairless mouse. Mice were anesthetized with isoflurane and immobilized. Rhodamine-labeled CSP-4 (200 μg/ml) was then applied to the skin in a topical spread.
Diffusion of the peptide into the skin was assessed after 5, 10, 15, 20, 25 and 30 min.
Supplementary Figure 3: Observation of GUVs (PE/PG) with peptides. […] Morphological changes and calcein leakage from the GUVs was monitored. GUVs were examined under an inverted fluorescence phase contrast microscope, and images were recoded using a digital CCD camera. […]

E. coli LPS = test: Peptide-LPS binding affinity assay (dansyl polymyxin B); details: LPS 9 µg, 2.5 μM dansyl polymyxin B, 5 mM HEPES buffer pH 7.4, peptide 0.4 to 4 μM
Procedure: Lipoteichoic acid (LTA) and lipopolysaccharide (LPS) binding affinity assays were performed using a Perkin-Elmer LS55 fluorometer (Waltham, MA, USA). S. aureus LTA and E. coli LPS (9 µg) were incubated with 2.5 μM dansyl-polymyxin B in 5 mM HEPES buffer for 5–10 min at pH 7.4. The CSP-4 peptide was added in 0.4 μM increments from 0.4 to 4 μM. The increase in fluorescence intensity was assessed using a spectrofluorometer at an excitation wavelength of 340 nm and an emission wavelength of 482 nm (Perkin-Elmer LS55).

S. aureus = test: SYTOX-Green uptake; assay type: cell-based; details: S. aureus 2 × 10^7 cfu/mL, 1 μM SYTOX-Green, 10 mM sodium phosphate buffer
Procedure: S. aureus CCARM 259237 cells were grown to the mid-log phase and suspended in 10 mM sodium phosphate buffer supplemented with 10% culture medium at pH 7.4 and 37° C, and then washed and suspended (2 × 10^7 cfu/mL) in 10 mM sodium phosphate buffer (pH 7.4) and incubated with 1 μM SYTOX-Green for 20 min in the dark. After the addition of peptides at the appropriate concentrations (1/2 MIC, MIC, 2× MIC, and/or 4× MIC), time-dependent increases in fluorescence, which is caused by the binding of the cationic dye to intracellular nucleic acids, was monitored using a Perkin-Elmer LS55 fluorometer (excitation wavelength, 485 nm; emission wavelength, 520 nm).

E. coli = test: Time-kill kinetics; assay type: cell-based; details: pH 5.5 and pH 7.4, peptides at their respective MICs
Procedure: E. coli were grown overnight in LB broth (pH 5.5 or pH 7.4) and diluted to an OD600 of 0.05. CSP-4 was then added so that the final concentration was either the MIC or 1/2 MIC. E. coli cells were then sampled at 1-min intervals for the first 10 min and at 10-min intervals thereafter for 2 h. The cultures were then diluted 50-fold in PBS buffer and plated on LB agar. Colonies were counted after 24 h.

FLRFIGSVKHGKGHLVHHIGVAL-NH2 [CSP-4]
MIC (P. aeruginosa 3543): 4 µM | MIC (P. aeruginosa 3547): 4 µM | MIC (P. aeruginosa 3904): 2 µM | MIC (P. aeruginosa 4007): 2 µM | Depth of penetration into skin [1]: 25–40 μm | Binding to LPS (fluorescence of dansyl polymyxin B) (E. coli LPS): dose-dependent increase in fluorescence intensity | Membrane disruption (SYTOX-Green fluorescence) (S. aureus): dose-dependent increase in fluorescence intensity | Killing kinetics (E. coli): reduced bacterial growth faster than CSP
